The subject of data set [1] is Variovorax paradoxus CL14 MarR_73 S28A. Put plainly: ITC binding of duplex oligo DNA to MarR_73 S28A.
The target of data set [2] is Variovorax paradoxus CL14 MarR_73 (Variovorax paradoxus, UniProt C5CSP2). Put plainly: biochemical. It is filed as binding. How it is done: The coding sequence for each gene can be found in Supplementary Table 10. MarR expression plasmids were synthesized as codon-optimized genes for E. coli expression by BioBasic in the pLIC-His N-term vector (pMCSG7) and transformed into E. coli BL21 (DE3) Gold cells for expression. […] At an OD600 of 0.8, protein expression was induced by the addition of 0.1 mM IPTG and incubation continued overnight. Cells were collected by centrifugation at 4,500 × g for 20 min at 4 °C in a Sorvall (model RC-3B) swinging bucket centrifuge. Cell pellets were resuspended in buffer A (20 mM potassium phosphate, pH 7.4, 50 mM imidazole, 500 mM NaCl), DNase, lysozyme and a Roche Complete EDTA-free protease inhibitor tablet. Resuspended cells were sonicated and clarified via centrifugation at 17,000 × g for 60 min in a Sorvall (model RC-5B) swinging bucket centrifuge. The lysate was applied to a nickel-nitrilotriacetic acid HP column (GE Healthcare) on an Aktaxpress Fast Performance Liquid Chromatography (FPLC) system (Amersham Bioscience) and washed with buffer A. Protein was eluted with buffer B (20 mM potassium phosphate, pH 7.4, 500 mM imidazole, 500 mM NaCl). Fractions containing the protein of interest were combined and passed over a HiLoadTM 16/60 SuperdexTM 200 gel filtration column. Proteins were eluted in S200 buffer (20 mM HEPES, pH 7.4, 300 mM NaCl). Fractions were combined and concentrated for long-term storage at −80 °C.
Chain of Variovorax paradoxus CL14 MarR_73 (C5CSP2 entry or part of it): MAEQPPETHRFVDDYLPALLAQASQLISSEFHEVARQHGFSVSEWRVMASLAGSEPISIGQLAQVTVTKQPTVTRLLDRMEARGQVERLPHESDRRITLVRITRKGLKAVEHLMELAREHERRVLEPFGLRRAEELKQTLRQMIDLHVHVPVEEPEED
All ITC measurements were performed at 25 °C using an Auto-ITC200 microcalorimeter (MicroCal/GE Healthcare). The buffer employed was 20 mM HEPES, pH 7.4, 50 mM NaCl and 0.5% dimethly sulfoxide (DMSO) for protein/ligand binding and 20 mM HEPES, pH 7.4 and 300 mM NaCl for DNA/protein binding experiments. For ligand binding experiments, the calorimetry cell (volume […]) was loaded with MarR wild-type, mutant or homologue protein at a concentration of 50 μM. The syringe was loaded with a ligand concentration of 0.5 or 2 mM. […] A typical injection protocol included a single 0.2 μl first injection followed by 20 1.5 μl injections of the syringe sample into the calorimetry cell. The spacing between injections was kept at 180 s and the reference power at 8 μcal s^−1. […] Two independent ITC measurements were performed for each condition.

The mark [3] stands for this setting: ITC, 25 °C, 20 mM HEPES pH 7.4, 300 mM NaCl.
Setting [4] is: ITC, 25 °C, 20 mM HEPES pH 7.4, 300 mM NaCl, duplex oligo in cell, protein in syringe.
The mark [5] stands for this setting: ITC, 25 °C, 20 mM HEPES pH 7.4, 50 mM NaCl, 0.5% DMSO, mean of two measurements ± standard error.

Like-named read-outs stand apart in the source and are kept apart here.

Chain of Variovorax paradoxus CL14 MarR_73 S28A (as listed by the source, stated change not applied): as the sequence (C5CSP2 entry or part of it) above, with S28A counted along it

“AATTCATGATTGTGGATACATT: 22 bp duplex oligo DNA, sequence between genes 73 and 72 (antisense TTAAGTACTAACACCTATGTAA; chemistry not fully specified; one strand is listed 3' to 5')”: in data set [1] (ITC in 150 mM NaCl), binding was characterised by a dissociation constant (Kd) of 0.428 ± 0.002 µM and the N was found to be 1.75 ± 0.014. In addition, in data set [1] (setting [3]), the “N (MarR monomer binding stoichiometry to duplex DNA)” value was 2.1 ± 0.3. In data set [1] (setting [4]), this molecule displayed a Kd of 0.52 ± 0.09 µM.

Regarding `O=C(O)Cc1c[nH]c2ccc(O)cc12` [5-Hydroxyindole-3-Acetic Acid], the Kd in data set [2] was determined as 10 ± 0.3 µM. Further, the “N (ligand binding stoichiometry to the MarR monomer)” value in data set [2] (setting [5]) stood at 0.78 ± 0.25.

Regarding `O=C(O)c1c[nH]c2ccccc12` [Indole-3-Carboxylic Acid], the equilibrium dissociation constant (Kd) in data set [2] was 4.6 ± 0.5 µM. In data set [2] (setting [5]), the “N (ligand binding stoichiometry to the MarR monomer)” value is recorded as 0.67 ± 0.03.

With `O=C(O)CCc1c[nH]c2ccccc12` [Indole-3-propionic Acid], in data set [2], binding was characterised by a dissociation constant (Kd) of 17 ± 0.1 µM. Further, the “N (ligand binding stoichiometry to the MarR monomer)” value in data set [2] (setting [5]) is listed as 0.81 ± 0.05.

As to `O=C(O)c1ccccc1O` [Salicylic Acid], the Kd in data set [2] is 14 ± 3 µM. In data set [2] (setting [5]), the “N (ligand binding stoichiometry to the MarR monomer)” value is 0.90 ± 0.01.

In the case of `O=C(O)COc1ccc(Cl)cc1Cl` [2,4-Dichorophenoxyacetic Acid], the “N (ligand binding stoichiometry to the MarR monomer)” value in data set [2] (setting [5]) stood at 1.40 ± 0.01. In data set [2] (ITC, 25 °C, 20 mM HEPES pH 7.4, 50 mM NaCl, 0.5% DMSO, mean of two measurements ± standard error, read-out: KD), the dissociation constant (Kd) is 11 ± 1 µM.

In turn, `O=C(O)Cc1ccccc1` [Phenylacetic Acid] came in with a Kd in data set [2] of 10 ± 0.1 µM. Besides, in data set [2] (setting [5]), the “N (ligand binding stoichiometry to the MarR monomer)” value was determined as 0.79 ± 0.02.

“GTAATTCATGATTGTGGATACATTCATTTG: 30 bp duplex oligo DNA, sequence between genes 73 and 72 of the Variovorax IAA degradation locus (antisense CATTAAGTACTAACACCTATGTAAGTAAAC; chemistry not fully specified; one strand is listed 3' to 5')”: the “N (MarR monomer binding stoichiometry to duplex DNA)” value in data set [1] (setting [3]) amounted to 2.0 ± 0.1. In data set [1] (setting [4]), this molecule showed a dissociation constant Kd of 0.27 ± 0.02 µM.

`Nc1c(Cl)c(Cl)nc(C(=O)O)c1Cl` [Picloram]: the affinity in data set [2], expressed as Kd, was 16 ± 0.4 µM. Further, the “N (ligand binding stoichiometry to the MarR monomer)” value in data set [2] (setting [5]) turned out to be 0.96 ± 0.01.

Consider `O=C(O)Cc1cccc2ccccc12` [1-Naphthaleneacetic Acid], for which the dissociation constant (Kd) in data set [2] was found to be 0.33 ± 0.01 µM. Moreover, in data set [2] (setting [5]), the “N (ligand binding stoichiometry to the MarR monomer)” value is 0.74 ± 0.01.

`Oc1ccccc1O` [Catachol (1,2-Dihydroxybenzene), 1,2-Dihydroxybenzene] registered a Kd in data set [2] of 13 ± 0.1 µM. The “N (ligand binding stoichiometry to the MarR monomer)” value in data set [2] (setting [5]) was 0.76 ± 0.01.

`O=C(O)c1ccccc1` [Benzoic Acid] gave a dissociation constant Kd in data set [2] of 13 ± 1 µM. Also, in data set [2] (setting [5]), the “N (ligand binding stoichiometry to the MarR monomer)” value is 0.80 ± 0.01.

In the case of `O=C(O)CCCc1c[nH]c2ccccc12` [Indole-3-Butyric Acid], in data set [2], the dissociation constant (Kd) came to 18 ± 1 µM. Further, in data set [2] (setting [5]), the “N (ligand binding stoichiometry to the MarR monomer)” value worked out at 0.80 ± 0.01.

For “AATTCATGATTGTGGATACATTCA: 24 bp MarR_73 DNA binding sequence between genes 73 and 72 (antisense TTAAGTACTAACACCTATGTAAGT; chemistry not fully specified; one strand is listed 3' to 5')”, in data set [1] (ITC in 150 mM NaCl), binding was put at a Kd of 0.151 ± 0.025 µM and the N is reported as 2.51 ± 0.26. For the same molecule, the “N (MarR monomer binding stoichiometry to duplex DNA)” value in data set [1] (setting [3]) was found to be 2.5 ± 0.2. Moreover, the Kd in data set [1] (setting [4]) worked out at 0.21 ± 0.09 µM.
